Columns and labels:
hERG channel = molecular target: T1, hERG channel (Homo sapiens, UniProt Q12809); test: hERG channel inhibition assay (patch-clamp, CHO hERG cells); format: cell-based; conditions: for IC50 / IC20: CHO hERG cells, whole-cell patch-clamp; for IC20: human, CHO cells stably expressing hERG; for hERG IC20 / TLR7 IC50 / hERG IC20 / TLR9 IC50: safety ratio; for hERG IC20 / TLR7 IC50: TLR7 IC50 of ER compounds from Table 1; for hERG IC20 / TLR9 IC50: TLR9 IC50 of ER compounds from Table 1
T1 construct: expressed in transfected cells; host or cells: CHO (Chinese hamster ovary)
Procedure: The hERG K^+ channels were cloned in humans and stably expressed in a CHO (Chinese hamster ovary) cell line. CHOhERG cells were used for patch-clamp (voltage-clamp, whole-cell) experiments. Cells were stimulated by a voltage pattern to activate hERG channels and conduct IKhERG currents (rapid delayed outward rectifier potassium current of the hERG channel). After the cells were stabilized for a few minutes, the amplitude and kinetics of IKhERG were recorded at a stimulation frequency of 0.1 Hz (6 bpm). Thereafter, the test compound was added to the preparation at increasing concentrations. For each concentration, an attempt was made to reach a steady-state effect, usually, this was achieved within 3-10 min at which time the next highest concentration was applied. The amplitude and kinetics of IKhERG are recorded in each concentration of the drug which were compared to the control values (taken as 100%). (references: Redfern WS, Carlsson L, Davis AS, Lynch WG, MacKenzie I, Palethorpe S, Siegl PK, Strang I, Sullivan AT, Wallis R, Camm AJ, Hammond TG. 2003; Relationships between preclinical cardiac electrophysiology, clinical QT interval prolongation and torsade de pointes for a broad range of drugs: evidence for a provisional safety margin in drug development. Cardiovasc. Res. 58:32-45, Sanguinetti MC, Tristani-Firouzi M. 2006; hERG potassium channels and cardiac arrhythmia. Nature 440:463-469, Webster R, Leishman D, Walker D. 2002; Towards a drug concentration effect relationship for QT prolongation and torsades de pointes. Curr. Opin. Drug Discov. Devel. 5:116-26).
Table 3. hERG and safety ratio results

hTLR9 = molecular target: T2, hTLR9 (Homo sapiens, UniProt Q9NR96); design: host or cells: HEK; conditions: data disclosed in US20150105370; read-out: HEK/hTLR9 IC50; cited from earlier work
T2 sequence (Q9NR96 26-1032): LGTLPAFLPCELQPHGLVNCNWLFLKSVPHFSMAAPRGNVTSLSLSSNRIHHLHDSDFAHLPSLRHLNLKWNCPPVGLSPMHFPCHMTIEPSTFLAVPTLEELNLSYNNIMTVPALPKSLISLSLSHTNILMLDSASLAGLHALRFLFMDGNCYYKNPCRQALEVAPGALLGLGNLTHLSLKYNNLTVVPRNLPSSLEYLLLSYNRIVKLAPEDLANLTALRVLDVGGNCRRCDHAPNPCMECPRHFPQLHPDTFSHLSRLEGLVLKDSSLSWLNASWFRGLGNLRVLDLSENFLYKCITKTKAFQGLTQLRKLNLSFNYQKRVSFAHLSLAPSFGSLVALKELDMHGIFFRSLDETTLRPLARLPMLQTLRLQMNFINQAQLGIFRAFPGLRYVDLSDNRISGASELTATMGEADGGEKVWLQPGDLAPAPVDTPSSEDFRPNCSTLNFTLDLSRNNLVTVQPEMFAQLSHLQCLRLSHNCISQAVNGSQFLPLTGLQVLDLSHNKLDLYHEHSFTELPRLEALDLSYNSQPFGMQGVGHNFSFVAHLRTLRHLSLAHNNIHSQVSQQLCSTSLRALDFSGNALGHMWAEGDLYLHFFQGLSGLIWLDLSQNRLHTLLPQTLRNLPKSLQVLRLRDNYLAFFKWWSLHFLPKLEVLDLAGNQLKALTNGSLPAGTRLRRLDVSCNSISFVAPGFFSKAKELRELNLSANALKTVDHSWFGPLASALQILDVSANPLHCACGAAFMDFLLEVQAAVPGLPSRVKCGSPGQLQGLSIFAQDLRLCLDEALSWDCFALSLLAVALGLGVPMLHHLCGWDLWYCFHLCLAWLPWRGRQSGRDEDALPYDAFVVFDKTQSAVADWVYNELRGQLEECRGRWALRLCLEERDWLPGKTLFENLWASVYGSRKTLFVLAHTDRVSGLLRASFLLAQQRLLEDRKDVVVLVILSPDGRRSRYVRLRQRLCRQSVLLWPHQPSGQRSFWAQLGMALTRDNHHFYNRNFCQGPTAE

hTLR7 = molecular target: T3, hTLR7 (Homo sapiens, UniProt Q9NYK1); design: host or cells: HEK; conditions: data disclosed in US20150105370; read-out: HEK/hTLR7 IC50; cited from earlier work
T3 sequence (Q9NYK1 27-1049): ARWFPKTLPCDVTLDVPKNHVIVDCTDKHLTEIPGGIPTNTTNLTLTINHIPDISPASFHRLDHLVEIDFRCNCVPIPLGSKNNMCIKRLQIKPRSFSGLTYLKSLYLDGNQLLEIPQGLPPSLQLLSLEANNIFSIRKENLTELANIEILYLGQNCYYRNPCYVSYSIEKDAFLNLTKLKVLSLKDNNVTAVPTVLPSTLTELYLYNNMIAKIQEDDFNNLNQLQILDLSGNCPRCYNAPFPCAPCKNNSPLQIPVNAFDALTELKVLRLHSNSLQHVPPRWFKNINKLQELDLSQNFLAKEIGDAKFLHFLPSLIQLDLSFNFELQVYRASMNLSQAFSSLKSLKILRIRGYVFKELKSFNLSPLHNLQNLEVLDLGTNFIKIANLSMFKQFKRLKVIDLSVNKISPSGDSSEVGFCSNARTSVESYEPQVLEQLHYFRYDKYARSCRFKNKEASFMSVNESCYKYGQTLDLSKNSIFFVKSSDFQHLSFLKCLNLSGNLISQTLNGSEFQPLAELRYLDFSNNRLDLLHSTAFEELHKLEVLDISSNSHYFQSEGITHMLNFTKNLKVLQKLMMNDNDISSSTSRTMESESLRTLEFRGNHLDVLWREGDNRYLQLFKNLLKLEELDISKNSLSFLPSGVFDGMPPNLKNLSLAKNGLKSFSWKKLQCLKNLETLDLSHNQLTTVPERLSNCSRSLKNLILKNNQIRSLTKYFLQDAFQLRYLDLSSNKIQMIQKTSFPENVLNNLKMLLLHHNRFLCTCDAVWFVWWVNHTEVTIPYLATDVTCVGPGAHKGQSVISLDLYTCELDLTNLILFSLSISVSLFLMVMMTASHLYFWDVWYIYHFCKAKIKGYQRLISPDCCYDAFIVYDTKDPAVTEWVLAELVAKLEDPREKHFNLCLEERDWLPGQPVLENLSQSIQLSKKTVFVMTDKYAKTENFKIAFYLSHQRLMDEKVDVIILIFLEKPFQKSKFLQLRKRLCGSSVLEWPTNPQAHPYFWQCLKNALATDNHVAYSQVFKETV

[1] = Human microsome stability assay; format: in vitro ADME; conditions: 1 µM test compound, 0.5 mg/mL liver microsomal protein, 37 °C
Procedure: The human microsomal stability assay is used for early assessment of metabolic stability of a test compound in human liver microsomes.
Human liver microsomes (Cat.NO.: 452117, Corning, USA;Cat.NO.:H2610, Xenotech, USA) were preincubated with test compound for 10 minutes at 37 °C in 100 mM potassium phosphate buffer, pH 7.4. The reactions were initiated by adding NADPH regenerating system. The final incubation mixtures contained 1 µM test compound, 0.5 mg/mL liver microsomal protein, 1 mM MgClz, 1 mM NADP, 1 unit/mL isocitric dehydrogenase and 6 mM isocitric acid in 100 mM potassium phosphate buffer, pH 7.4. After incubation times of 0, 3, 6, 9, 15 and 30 minutes at 37 °C, 300 µL of cold acetonitrile (including internal standard) was added to 100 µL incubation mixture to terminate the reaction. Following precipitation and centrifugation, the amount of compound remaining in the samples were determined by LC-MS/MS. Controls of no NADPH regenerating system at zero and 30 minutes were also prepared and analyzed. […] Table 6. Human liver microsome stability of the compounds of present invention

T1 sequence (Q12809 whole entry): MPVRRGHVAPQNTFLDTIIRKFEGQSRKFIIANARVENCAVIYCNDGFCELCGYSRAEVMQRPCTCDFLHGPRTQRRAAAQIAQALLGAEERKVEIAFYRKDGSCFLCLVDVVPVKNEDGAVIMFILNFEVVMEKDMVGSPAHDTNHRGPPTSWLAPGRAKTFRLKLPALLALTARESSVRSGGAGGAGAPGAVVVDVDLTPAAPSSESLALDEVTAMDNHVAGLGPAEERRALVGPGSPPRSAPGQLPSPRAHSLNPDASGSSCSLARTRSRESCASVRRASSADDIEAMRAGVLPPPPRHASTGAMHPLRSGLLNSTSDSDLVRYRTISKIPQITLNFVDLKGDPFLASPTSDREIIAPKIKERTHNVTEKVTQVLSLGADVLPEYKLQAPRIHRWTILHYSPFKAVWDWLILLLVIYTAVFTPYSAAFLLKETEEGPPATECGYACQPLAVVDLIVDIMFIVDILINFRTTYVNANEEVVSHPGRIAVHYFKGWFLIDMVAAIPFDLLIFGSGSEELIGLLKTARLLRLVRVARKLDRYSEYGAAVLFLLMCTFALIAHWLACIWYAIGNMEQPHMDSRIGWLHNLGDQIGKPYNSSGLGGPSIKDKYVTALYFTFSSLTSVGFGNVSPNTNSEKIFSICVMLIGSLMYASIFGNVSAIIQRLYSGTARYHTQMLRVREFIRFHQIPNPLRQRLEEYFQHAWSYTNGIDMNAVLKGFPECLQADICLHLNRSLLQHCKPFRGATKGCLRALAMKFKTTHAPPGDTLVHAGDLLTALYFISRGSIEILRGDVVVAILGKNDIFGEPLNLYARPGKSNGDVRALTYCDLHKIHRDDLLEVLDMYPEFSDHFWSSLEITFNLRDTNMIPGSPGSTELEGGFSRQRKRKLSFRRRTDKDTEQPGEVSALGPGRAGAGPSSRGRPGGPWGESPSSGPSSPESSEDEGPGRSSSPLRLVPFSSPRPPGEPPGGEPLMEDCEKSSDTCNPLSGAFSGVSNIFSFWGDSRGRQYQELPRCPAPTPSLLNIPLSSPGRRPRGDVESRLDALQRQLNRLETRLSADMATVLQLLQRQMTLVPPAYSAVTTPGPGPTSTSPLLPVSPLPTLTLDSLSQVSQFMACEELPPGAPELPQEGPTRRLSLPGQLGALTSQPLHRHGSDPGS

Row | Clearance of Human microsome [1] | Structure (SMILES) | IC50 (hERG channel) | IC20 (hERG channel) | hERG IC20 / TLR7 IC50 (hERG channel) | hERG IC20 / TLR9 IC50 (hERG channel) | IC50 (hTLR9) | IC50 (hTLR7)
1 | 17.86 mL/min/kg | C[C@@H]1CN(c2ccc(C#N)c3ncccc23)C[C@H](CN2CCN(c3ccccc3)CC2)O1 [ER-887258, reference compound] | 2780 nM | 687 nM | 8.1 | 0.3 | > 2000 nM | 85.2 nM
2 | 17.15 mL/min/kg | C[C@@H]1CN(c2ccc(C#N)c3ncccc23)C[C@H](CN2CCN(c3ccccn3)CC2)O1 [ER-888285, reference compound] | 3110 nM | 1010 nM | 8.4 | 0.5 | > 2000 nM | 120 nM

— patent EP3807270B1, “NOVEL HETEROARYL HETEROCYCLYL COMPOUNDS FOR THE TREATMENT OF AUTOIMMUNE DISEASE” (F. Hoffmann-La Roche AG, priority 2018, dated 2019)
